Paper PMC11508362, “Discovery of Novel Thiazole-Based SIRT2 Inhibitors as Anticancer Agents: Molecular Modeling, Chemical Synthesis and Biological Assays” (International Journal of Molecular Sciences, 2024)
Read-outs that look alike come from different tables or passages of the source.

What was measured:
[1] = target: T1, SIRT2 (Homo sapiens, UniProt Q8IXJ6); conditions: cited from earlier work
T1 sequence (Q8IXJ6 1-389): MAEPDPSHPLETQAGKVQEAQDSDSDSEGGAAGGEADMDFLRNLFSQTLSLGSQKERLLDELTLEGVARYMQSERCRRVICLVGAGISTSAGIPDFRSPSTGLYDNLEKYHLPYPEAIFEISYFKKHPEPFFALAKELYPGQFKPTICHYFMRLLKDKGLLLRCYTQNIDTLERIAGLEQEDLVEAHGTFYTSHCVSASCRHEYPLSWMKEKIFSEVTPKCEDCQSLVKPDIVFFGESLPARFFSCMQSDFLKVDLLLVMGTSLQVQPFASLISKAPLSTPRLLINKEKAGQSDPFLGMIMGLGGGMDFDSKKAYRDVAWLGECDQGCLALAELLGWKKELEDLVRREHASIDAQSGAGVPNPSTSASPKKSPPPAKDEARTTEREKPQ

[2] = target: T2, SIRT1 (Homo sapiens, UniProt Q96EB6); assay: SIRT1 deacetylation reaction, recombinant protein; type: biochemical; conditions: deacetylase activity, SD always ≤10%
T2 sequence (Q96EB6 1-747): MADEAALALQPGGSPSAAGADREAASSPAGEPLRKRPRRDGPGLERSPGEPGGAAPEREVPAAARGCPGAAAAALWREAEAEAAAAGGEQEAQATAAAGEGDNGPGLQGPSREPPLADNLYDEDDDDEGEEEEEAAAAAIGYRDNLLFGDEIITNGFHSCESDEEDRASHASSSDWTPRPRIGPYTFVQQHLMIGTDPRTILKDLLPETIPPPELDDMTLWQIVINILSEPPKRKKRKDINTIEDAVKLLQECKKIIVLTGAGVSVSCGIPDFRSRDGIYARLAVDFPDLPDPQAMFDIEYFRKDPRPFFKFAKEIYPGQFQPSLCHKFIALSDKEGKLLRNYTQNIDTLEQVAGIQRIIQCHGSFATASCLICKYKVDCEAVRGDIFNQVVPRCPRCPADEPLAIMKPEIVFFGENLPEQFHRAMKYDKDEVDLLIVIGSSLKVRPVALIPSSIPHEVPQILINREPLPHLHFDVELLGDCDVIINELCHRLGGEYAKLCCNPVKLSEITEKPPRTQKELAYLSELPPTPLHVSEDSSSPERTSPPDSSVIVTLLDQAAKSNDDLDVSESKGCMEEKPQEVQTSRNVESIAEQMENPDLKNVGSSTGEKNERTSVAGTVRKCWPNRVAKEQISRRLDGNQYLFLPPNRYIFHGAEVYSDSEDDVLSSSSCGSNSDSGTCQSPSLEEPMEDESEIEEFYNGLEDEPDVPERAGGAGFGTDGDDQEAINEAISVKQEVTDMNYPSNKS
Description: (§1) Next, the selectivity of the compounds for SIRT2 against other sirtuins was also determined. The compounds were tested at the final concentration of 150 µM in the deacetylation reaction of SIRT1, SIRT3 and SIRT6, with this last one being promoted by the addition of the SIRT6 activator MDL-800 and also in the depalmitoylation reaction of SIRT6.

[3] = target: T3, SIRT3 (Homo sapiens, UniProt Q9NTG7); assay: SIRT3 deacetylation reaction, recombinant protein; type: biochemical; conditions: deacetylase activity, SD always ≤10%
T3 sequence (Q9NTG7 1-399): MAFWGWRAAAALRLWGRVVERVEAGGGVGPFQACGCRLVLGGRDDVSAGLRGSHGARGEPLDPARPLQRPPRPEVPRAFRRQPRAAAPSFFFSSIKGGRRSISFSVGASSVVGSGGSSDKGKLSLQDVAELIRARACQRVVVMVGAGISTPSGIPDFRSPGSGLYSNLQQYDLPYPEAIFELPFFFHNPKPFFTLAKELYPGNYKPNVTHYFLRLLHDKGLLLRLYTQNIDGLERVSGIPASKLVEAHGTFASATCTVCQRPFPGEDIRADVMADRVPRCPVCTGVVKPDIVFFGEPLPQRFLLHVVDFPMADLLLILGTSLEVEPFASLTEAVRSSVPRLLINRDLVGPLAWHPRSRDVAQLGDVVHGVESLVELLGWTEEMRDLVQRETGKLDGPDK
Description: as §1

[4] = target: T4, SIRT6 (Homo sapiens, UniProt Q8N6T7); assay: SIRT6 deacetylation reaction promoted by the SIRT6 activator MDL-800, recombinant protein; type: biochemical; conditions: with SIRT6 activator MDL-800, SD always ≤10%; for inhibition at 150 µM: read-out: % Inhibition SIRT6 (Deacetylase); for % Inhibition SIRT6 (Deacetylase): 150 µM
Description: as §1

[5] = target: T4, SIRT6; assay: SIRT6 depalmitoylation reaction (H3K9Palm), recombinant protein; type: biochemical; conditions: 150 µM, SD always ≤10%
Description: as §1

[6] = target: T1, SIRT2; assay: SIRT2 deacetylase activity, recombinant SIRT2 with acetylated peptide H3K9Ac and NAD+; conditions: for inhibition at 150 µM: read-out: % Inhibition SIRT2 (at 150 μM)
Description: The effect of urea derivatives on SIRT2 deacetylase activity was evaluated upon incubation of recombinant SIRT2 with an acetylated peptide (H3K9Ac, a peptide acetylated on Lys 9) and the co-substrate NAD^+.

[7] = test system: acetylation of α-tubulin in SCC13 cells; assay: Western blot of α-tubulin acetylation (endogenous SIRT2 inhibition) in SCC13 cells; type: cell-based; conditions: 5 μM, 48 h, Western blot normalized to total α-tubulin
Description: To confirm that the effect of 5a on cell viability was due to its ability to inhibit the endogenous SIRT2, Western blot analyses were performed to quantify the level of acetylation of α-tubulin, a direct substrate of SIRT2 enzymatic activity.
SCC13 cells (3 × 10^5) were seeded in 60 mm Petri dishes and left to adhere overnight. The day after, the medium was replaced with a medium containing 5a at a final concentration of 5 µM or the respective amount of DMSO vehicle. After 48 h, the medium was removed, and cells were washed with PBS and lysed by scraping with 100 µL of lysis buffer (25 mM Tris-HCl, pH 7.8; 2 mM DTT; 2 mM EDTA, 10% glycerol; 1% Triton® X-100). The lysate was clarified by centrifugation, and the protein concentration was measured using the Bradford assay. Twenty µg of proteins were loaded on a 10% polyacrylamide gel and then transferred to a nitrocellulose membrane. The membrane was saturated with 5% skim milk powder solution in TBS-Tween 0.05%. To determine the acetylation of alpha-tubulin, membranes were incubated with an anti-acetyl-alpha-tubulin antibody (#5335, Cell Signaling Technology, Danvers, MA, USA), whose signal was normalized on the total amount of alpha-tubulin (#2125, Cell Signaling Technology).

[8] = Table S1, ref [2] Schiedel et al., J. Med. Chem. 2016, read-out: IC50 of SIRT2 inhibition (Table S1)
[9] = Table S2, SIRT2 inhibition of SirReal2 analogues, read-out: IC50 (Table S2)
[10] = SirReal2 analogs, read-out: SIRT2 IC50

T4 sequence (Q8N6T7 whole entry, species assumed): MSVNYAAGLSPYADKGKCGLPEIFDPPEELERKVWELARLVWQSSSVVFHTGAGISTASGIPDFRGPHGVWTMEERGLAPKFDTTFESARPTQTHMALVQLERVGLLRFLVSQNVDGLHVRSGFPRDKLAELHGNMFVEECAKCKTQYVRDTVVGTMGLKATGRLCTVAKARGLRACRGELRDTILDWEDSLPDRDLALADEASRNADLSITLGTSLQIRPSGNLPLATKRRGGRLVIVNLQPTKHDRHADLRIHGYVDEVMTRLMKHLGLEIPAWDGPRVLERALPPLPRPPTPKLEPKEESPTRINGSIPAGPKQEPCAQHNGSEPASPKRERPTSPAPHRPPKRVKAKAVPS

Cc1nc(SCC(=O)Nc2ncc(Cc3cccc4ccccc34)s2)nc(C)c1C [Compound 18]
IC50 [1, 8]: 15 µM
IC50 [1, 9]: 15 µM

Cc1sc(NC(=O)NCc2ccccc2)nc1-c1ccc(Br)cc1 [Compound 3d, 1-benzyl-3-(4-(4-bromophenyl)-5-methylthiazol-2-yl)urea]
inhibition at 150 µM [2]: 99%
inhibition at 150 µM [3]: 23%
inhibition at 150 µM [4]: 15%
% Inhibition SIRT6 (Depalmiotoylase) [5]: ni
IC50 [6]: 108 ± 4 µM
inhibition at 150 µM [6]: 100 ± 4%

Cc1cc(C)nc(SCC(=O)Nc2ncc(Cc3cccc4ccc(Br)cc34)s2)n1 [Compound 14]
IC50 [1, 10]: 0.21 µM
IC50 [1, 8]: 0.2 µM

Cc1cc(C)nc(SCC(=O)Nc2nnc(Cc3cccc4ccccc34)s2)n1 [Compound 24]
IC50 [1, 8]: 1.9 µM
IC50 [1, 9]: 1.89 µM

O=C(CSc1cccc(O)c1)Nc1ncc(Cc2cccc3ccccc23)s1 [Compound 7]
IC50 [1, 10]: 143 to 207 µM
IC50 [1, 8]: 143 µM

Cc1sc(N)nc1-c1ccc(Br)cc1 [Compound 2]
IC50 [1, 8]: 16.8 µM

Cc1cc(C)nc(SC(C)C(=O)Nc2ncc(Cc3cccc4ccccc34)s2)n1 (centres unmarked) [Compound 11]
IC50 [1, 8]: 9.8 µM
IC50 [1, 9]: 9.77 µM

CCCc1cc(O)nc(SCC(=O)Nc2ncc(Cc3cccc4ccccc34)s2)n1 [Compound 20]
IC50 [1, 8]: 127 µM
IC50 [1, 9]: 127 µM

CC(Br)C(=O)c1ccc(Br)cc1 (centres unmarked) [Compound 1]
IC50 ([1]; read-out: IC50 (Table S2), Table S2, SIRT2 inhibition of SirReal2 analogues): 3.75 µM
IC50 ([1]; read-out: IC50 of SIRT2 inhibition (Table S1), Table S1, ref [2] Schiedel et al., J. Med. Chem. 2016): 3.8 µM

CCOc1ccc2nc(NC(=O)CSc3nc(C)cc(C)n3)sc2c1 [Compound 25]
IC50 [1, 8]: 207 µM
IC50 [1, 9]: 207 µM

CCOc1cccc(Cc2cnc(NC(=O)CSc3nc(C)cc(C)n3)s2)c1 [Compound 5]
IC50 [1, 8]: 1.3 µM
IC50 [1, 9]: 1.33 µM

COc1cccc(NC(=O)Nc2nc(-c3ccc(Br)cc3)c(C)s2)c1 [Compound 3b, 1-(4-(4-bromophenyl)-5-methylthiazol-2-yl)-3-(3-methoxyphenyl)urea]
inhibition at 150 µM [2]: 98%
inhibition at 150 µM [3]: 14%
% Inhibition SIRT6 (Deacetylase) [4]: ni
% Inhibition SIRT6 (Depalmiotoylase) [5]: ni
inhibition at 150 µM [6]: 93 ± 4%

Cc1cc(C)nc(SCC(=O)Nc2ncc(Cc3cccc4ccc(Cl)cc34)s2)n1 [Compound 10]
IC50 [1, 8]: 0.2 µM
IC50 [1, 9]: 0.18 µM

Cc1cc(C)nc(SCC(=O)Nc2ncc(Cc3c(C)ccc4ccccc34)s2)n1 [Compound 13]
IC50 [1, 8]: 0.3 µM
IC50 [1, 9]: 0.31 µM

CCc1cc(CC)nc(SCC(=O)Nc2ncc(Cc3cccc4ccccc34)s2)n1 [Compound 17]
IC50 [1, 8]: 45.6 µM

CCOC(=O)c1sc(N)nc1-c1ccc(Br)cc1 [Compound 4]
IC50 [1, 8]: 3.4 µM

Cc1cc(C)nc(SCC(=O)Nc2nnc(Cc3ccc(Cl)cc3)s2)n1 [Compound 22]
IC50 [1, 8]: 30.9 µM

O=C(CSc1ncccn1)Nc1ncc(Cc2cccc3ccccc23)s1 [Compound 16]
IC50 [1, 8]: 2.3 µM
IC50 [1, 9]: 2.34 µM

CSc1cccc(NC(=O)Nc2nc(-c3ccc(Br)cc3)c(C)s2)c1 [Compound 3c, 1-(4-(4-bromophenyl)-5-methylthiazol-2-yl)-3-(3-(methylthio)phenyl)urea]
inhibition at 150 µM [2]: 100%
inhibition at 150 µM [3]: 20%
inhibition at 150 µM [4]: 7%
% Inhibition SIRT6 (Depalmiotoylase) [5]: ni
IC50 [6]: 26 ± 4 µM
inhibition at 150 µM [6]: 96 ± 6%

Cc1cc(C)nc(SCC(=O)Nc2ncc(C(=O)Nc3cccc4ccccc34)s2)n1 [Compound 9]
IC50 [1, 8]: 33 µM

CCOC(=O)c1sc(NC(=O)NCc2ccccc2)nc1-c1ccc(Br)cc1 [Compound 5d, Ethyl 2-(3-benzylureido)-4-(4-bromophenyl)thiazole-5-carboxylate]
inhibition at 150 µM [2]: 92%
inhibition at 150 µM [3]: 24%
% Inhibition SIRT6 (Deacetylase) [4]: ni
% Inhibition SIRT6 (Depalmiotoylase) [5]: ni
inhibition at 150 µM [6]: 93 ± 4%

CC(=O)c1cccc(NC(=O)Nc2nc(-c3ccc(Br)cc3)c(C)s2)c1 [Compound 3a, 1-(3-acetylphenyl)-3-(4-(4-bromophenyl)-5-methylthiazol-2-yl)urea]
inhibition at 150 µM [2]: 86%
inhibition at 150 µM [3]: 6%
inhibition at 150 µM [4]: 42%
% Inhibition SIRT6 (Depalmiotoylase) [5]: ni
IC50 [6]: 37 ± 2 µM
inhibition at 150 µM [6]: 100 ± 5%

Cc1cc(C)nc(SCC(=O)Nc2nnc(Cc3ccc(Br)cc3)s2)n1 [Compound 23]
IC50 [1, 8]: 168 µM

N#C/C(=C\c1ccc(-c2cc(Cl)ccc2Cl)o1)C(=O)Nc1cccc2ncccc12 [AGK2, reference compound]
level of α-tubulin acetylation vs control cells [7]: increased levels of alpha-tubulin acetylation

Cc1cc(C)nc(SCC(=O)Nc2nnc(C(F)(F)F)s2)n1 [Compound 21]
IC50 [1, 10]: 503 µM

Cc1cc(C)nc(SC(C)C(=O)Nc2ncc(Cc3cccc4ccccc34)s2)n1 (centres unmarked) [Compound 12]
IC50 [1, 8]: 0.3 µM
IC50 [1, 9]: 0.26 µM

Cc1cc(C)cc(SCC(=O)Nc2ncc(Cc3cccc4ccccc34)s2)c1 [Compound 8]
IC50 [1, 10]: 143 to 207 µM
IC50 [1, 8]: 207 µM

Cc1cc(C)nc(SCC(=O)Nc2ncc(Cc3ccc(-c4ccccc4)cc3)s2)n1 [Compound 6]
IC50 [1, 8]: 164 µM
